# Where “and” joins values, the source holds several entries; their conditions need not be identical. Equal entries are not always repeated.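 Each compound was tested at five concentrations against cells in 96-well plates for 48 hours. The concentration for 50% growth inhibition is given as GI50. TGI: concentration producing complete growth inhibition.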
# Key:
# Assay in all cases: DTP human tumour cell line panel, 48 h
# [1] = tested on: HT29 colon
# [2] = tested on: U251 CNS
# [3] = tested on: LOX IMVI melanoma
# [4] = tested on: MCF7 breast
# [5] = tested on: SF-539 CNS
# [6] = tested on: OVCAR-3 ovarian
# [7] = tested on: CAKI-1 renal
# [8] = tested on: SK-OV-3 ovarian
# [9] = tested on: HOP-62 NSCLC
# [10] = tested on: SNB-19 CNS
Compound,GI50 [1],TGI [1],GI50 [2],TGI [2],GI50 [3],TGI [3],GI50 [4],TGI [4],GI50 [5],TGI [5],GI50 [6],TGI [6],GI50 [7],TGI [7],GI50 [8],TGI [8],GI50 [9],TGI [9],GI50 [10],TGI [10]
Oc1ccc(Cl)cc1CNc1nc2ccccc2[nH]1,17.2 µM,35.5 µM,11.7 µM,24.5 µM,13.7 µM,28.8 µM,10.4 µM,33.1 µM,12.9 µM,26.8 µM,12.7 µM,29 µM,11.4 µM,28.1 µM,16.8 µM,34.8 µM,11.8 µM,27.2 µM,14.4 µM,40.3 µM
O=C(O)/C=C/C(=O)N1C/C(=C\c2ccccc2)C(=O)/C(=C/c2ccccc2)C1,–,21.1 µM,–,3.79 µM,–,10.5 µM,–,18.3 µM,–,26.7 µM,–,15.6 µM,–,31.1 µM,–,42.7 µM,–,41.7 µM,–,23.6 µM
O=C(Nc1ccc(Cl)c(Cl)c1)OCCN1c2ccccc2Sc2ccccc21,–,> 10 µM,–,> 10 µM,–,> 10 µM,–,> 10 µM,–,> 10 µM,–,> 10 µM,–,> 10 µM,–,> 10 µM,–,> 10 µM,–,> 10 µM
CSc1cccc(NC(=O)OC2CCCCCCCCCCC2)c1,–,43.8 µM,–,41 µM,–,35.1 µM,–,60.4 µM,–,63.7 µM,–,29.6 µM,–,61 µM,–,57.9 µM,–,48.3 µM,–,> 100 µM
[Cl][Cd][Cl],45.4 µM,130 µM,14.7 µM and 13.6 µM,20.3 µM and 40.1 µM,24.8 µM,75.9 µM,9.11 µM,19.2 µM,4.51 µM and 19.5 µM and 18.9 µM,47.4 µM and 62.5 µM,3.26 µM and 12.1 µM and 6.94 µM,8 µM and 25.9 µM and 15.3 µM,17.7 µM and 10.9 µM,34.8 µM and 22.2 µM,44.3 µM and 12.4 µM,> 60 µM and 26 µM,39.7 µM,93.1 µM,> 44.1 µM and 49.9 µM,> 61 µM and 146 µM
C=C1c2c(Cl)ccc(O)c2C(O)=C2C(=O)[C@]3(O)C(O)=C(C(N)=O)C(=O)[C@@H](N(C)C)[C@@H]3[C@@H](O)[C@H]12,1.55 µM,6.18 µM,0.949 µM,4.09 µM,0.924 µM,3.59 µM,1.76 µM,6.66 µM,1.32 µM,4.61 µM,1.36 µM,5.25 µM,0.499 µM,3.4 µM,1 µM,3.2 µM,0.984 µM,3.1 µM,1.44 µM,> 50 µM
CN(C)CCN1C(=O)c2cccc3cccc(c23)C1=O,11.7 µM,> 25 µM,19.8 µM,> 25 µM,10.6 µM,> 25 µM,9.31 µM,> 25 µM,15.6 µM,> 25 µM,21.5 µM,> 25 µM,5.13 µM,17.5 µM,24.5 µM,> 25 µM,> 25 µM,> 25 µM,22.3 µM,> 25 µM
NCCSCCc1ccccc1,–,> 100 µM,–,> 100 µM,–,> 100 µM,–,> 100 µM,–,> 100 µM,–,> 100 µM,–,> 100 µM,–,> 100 µM,–,> 100 µM,–,> 100 µM
Cc1cccc(Nc2cnc(N)nc2N)c1,–,> 100 µM,–,> 100 µM,–,> 100 µM,–,> 100 µM,–,> 100 µM,–,> 100 µM,–,> 100 µM,–,> 100 µM,–,> 100 µM,–,> 100 µM
COc1ccc2nc(NC(=O)c3cccnc3Nc3cc(OC)c(OC)c(OC)c3)sc2c1,17.7 µM,39.2 µM,7.1 µM,21.7 µM,15.7 µM,42.2 µM,0.515 µM,13.6 µM,2.8 µM,11.2 µM,8.92 µM,21.5 µM,16.4 µM,42.5 µM,3.72 µM,14.5 µM,6.33 µM,22.3 µM,15 µM,31.7 µM
COc1ccc(-c2nn(-c3cccc(NC(=O)c4ccc(N5CCOCC5)c(C(F)(F)F)c4)c3)cc2-c2ccncc2)cc1Cl,1.72 µM,> 50 µM,1.14 µM,> 50 µM,9.98 µM,> 50 µM,3.11 µM,> 50 µM,2.66 µM,36.3 µM,–,–,3.64 µM,> 50 µM,32.8 µM,> 50 µM,11.4 µM,> 50 µM,46.8 µM,> 50 µM
O=[N+]([O-])c1ccc(S(=O)(=O)Cc2ccccc2)c2nonc12,–,36.7 µM,–,36.1 µM,–,38.2 µM,–,43 µM,–,35.5 µM,–,37.2 µM,–,38.2 µM,–,> 100 µM,–,43.1 µM,–,> 100 µM
OCCN1CCN(CC/C=C2\c3ccccc3Sc3ccc(Cl)cc32)CC1,1.72 µM and 1.69 µM,3.92 µM and 3.42 µM,2.34 µM and 2.46 µM,5.96 µM and 6.4 µM,1.96 µM and 1.65 µM,3.89 µM and 3.13 µM,1.52 µM and 2.21 µM,3.34 µM and 5.45 µM,1.61 µM and 2.05 µM,3.37 µM and 4.37 µM,2.88 µM and 5.66 µM,13.1 µM and 17.8 µM,2.31 µM and 2.6 µM,10.4 µM and 8.18 µM,6.48 µM and 5.76 µM,19.1 µM and 16.9 µM,4.07 µM and 2.62 µM,14.5 µM and 7.04 µM,2.45 µM and 4.49 µM,6.43 µM and 10.4 µM
O=C1CC(c2ccc(Cl)cc2)Oc2ccccc21 (stereo unspecified),–,21.2 µM,–,> 100 µM,–,93.6 µM,–,13.6 µM,–,26.1 µM,–,–,–,77.3 µM,–,61 µM,–,56 µM,–,77.7 µM
O=C1C=CC(O)C2C1CC13SSC4(CC5C(=O)C=CC(O)C5N4C1=O)C(=O)N23 (stereo unspecified),–,–,–,1.28 µM,–,0.193 µM,–,> 100 µM,–,0.505 µM,–,0.53 µM,–,0.957 µM,–,14.1 µM,–,1.15 µM,–,5.19 µM
CC(C)CCN[C@@H]1CCc2cc(O)c(N3CC(=O)NS3(=O)=O)c(F)c2C1,> 100 µM,> 100 µM,> 100 µM,> 100 µM,52.7 µM,> 100 µM,> 100 µM,> 100 µM,20.3 µM,> 100 µM,> 100 µM,> 100 µM,3.41 µM,> 100 µM,> 100 µM,> 100 µM,> 100 µM,> 100 µM,> 100 µM,> 100 µM
